Laboratory results as given in patent US20230383320A1, “METHOD FOR PRODUCING MONOUNSATURATED FATTY ACID HAVING 16 CARBON ATOMS” (SHIZUOKA PREFECTURAL UNIVERSITY CORPORATION, priority 2022, published 2023).

System: Bifidobacterium sp. strain JCM7042
Experiment: Effect of components added to TOS liquid medium on bifidobacteria growth and 7-cis-C16:1 production
Format: cell-based
Conditions: component added to TOS liquid medium, amount per liter (0.1 to 10 g); compared to control without the component; 37° C.

Row | Compound | 7-cis-C16:1 Production | Bifidobacteria Growth
1 | Tergitol NP40 | Good | Good
2 | O=C([O-])O.[K+] [Potassium Hydrogen Carbonate] | Fair | Poor
3 | CCCCCCCC/C=C\CCCCCCCC(=O)OC [Oleic Acid Methyl Ester] | Good | Excellent
4 | O=C([O-])[O-].[Na+].[Na+] [Sodium Carbonate] | Poor | Poor
5 | Polysorbate 80 | Poor | Good
6 | O=C([O-])[O-].[K+].[K+] [Potassium Carbonate] | Poor | Poor
7 | O=C([O-])[O-].[Ca+2] [Calcium Carbonate] | Fair | Excellent
8 | O=C([O-])O.[Na+] [Sodium Hydrogen Carbonate] | Poor | Poor
9 | Anisidine | Good | Good
10 | CCCCCCCCCCCCCCCC(=O)OC [Palmitic Acid Methyl Ester] | Poor | Poor
11 | Triton X-100 | Poor | Poor
12 | CCCCCCCCCCCCCC(=O)O [Myristic Acid (free form), Myristic Acid] | Poor | Poor
13 | CCCCCCCCCCCCCCCC(=O)O [Palmitic Acid (free form), Palmitic Acid] | Poor | Poor
14 | CCCCCCCC/C=C\CCCCCCCC(=O)O [Oleic Acid (free form), Oleic Acid] | Poor | Fair
15 | O=C(O)CC(=O)C(=O)O [Oxaloacetic Acid] | Poor | Good
16 | CCCCCCCCCCCCCC(=O)OC [Myristic Acid Methyl Ester] | Poor | Poor
17 | Cl.N[C@@H](CS)C(=O)O.O [L-Cysteine Hydrochloride (1-hydrate)] | Excellent | Excellent
18 | CCCCCCCCCCCC(=O)O [Lauric Acid (free form), Lauric Acid] | Poor | Poor
19 | CCCCCCCCCCCC(=O)OC [Lauric Acid Methyl Ester] | Good | Good

System: Bifidobacterium sp. strain JCM7042
Experiment: L-cysteine concentration in MRS liquid medium, production of 7-cis-hexadecenoic acid
Format: cell-based
Conditions: 5.0 g/L in MRS liquid medium
Procedure: MRS media with various amounts of L-cysteine added were prepared to investigate their effect on the production of 7-cis-hexadecenoic acid by bifidobacteria. Specifically, the test was performed as follows. Bifidobacterium sp. strain JCM7042 (strain JCM7042) was used as the Bifidobacterium. L-cysteine hydrochloride monohydrate was added at 0.001 g/L, 0.01 g/L, 0.1 g/L, 0.5 g/L, 1.0 g/L, and 5.0 g/L to the MRS liquid medium with the composition shown in Table 1 to prepare L-cysteine-containing MRS liquid media. These MRS liquid media with L-cysteine and the control MRS liquid medium (without added L-cysteine) were cultured in the same manner as in Example 1. Using the same methods and conditions as in Example 1, the 7-cis-hexadecenoic acid in each culture solution was quantified by gas chromatography (GC) analysis.

Row | Compound | production of 7-cis-hexadecenoic acid
20 | Cl.N[C@@H](CS)C(=O)O.O [L-Cysteine Hydrochloride (1-hydrate)] | greatly inhibited

System: Staphylococcus aureus
Experiment: not given
Conditions: 7-cis-hexadecenoic acid itself; cited from earlier work

Row | Compound | MIC against Staphylococcus aureus
21 | CCCCCCCC/C=C\CCCCCC(=O)O [7-cis-hexadecenoic acid] | about 3 μg/mL

System: Staphylococcus aureus
Experiment: not given
Conditions: reported in Non Patent Literature 1; cited from earlier work

Row | Compound | selective antibacterial activity (S. aureus versus S. epidermidis) | antibacterial activity against Staphylococcus aureus
22 | CCCCCC/C=C\CCCCCCCC(=O)O [palmitoleic acid] | selective antibacterial activity similar to sapienic acid | 
23 | CCCCCCCCC/C=C\CCCCC(=O)O [sapienic acid] |  | strong antibacterial activity
24 | CCCCCCCC/C=C\CCCCCC(=O)O [7-cis-hexadecenoic acid] | selective antibacterial activity similar to sapienic acid | 

System: Staphylococcus epidermidis
Experiment: not given
Conditions: reported in Non Patent Literature 1; cited from earlier work

Row | Compound | antibacterial activity against Staphylococcus epidermidis
25 | CCCCCCCCC/C=C\CCCCC(=O)O [sapienic acid] | not against Staphylococcus epidermidis
